“Also recorded” adds a separate entry of the source.
Legend:
[1] = Clinical Study 1, Cohort 2: 24-hour intragastric pH on repeated co-administration with amoxicillin/clarithromycin; assay type: in vivo, human
Description: To identify an effect of eradicating Helicobacter pylori in the present invention, a clinical study was designed in accordance with a randomized, open-label, active-controlled, parallel and multiple-dose design. A total of 221 patients were subjected to screening for this study. Out of them, 36 patients were registered thereto and the completed clinical results were obtained from 34 patients.
Particularly, the 36 patients above were divided into three patient groups (T1, T2 and R) and the clinical study was performed accordingly. […]
The T1 group was repeatedly given 50 mg of CJ-12420 and 1000 mg of amoxicillin/500 mg of clarithromycin twice a day for seven days; the T2 group was repeatedly given 100 mg of CJ-12420 and 1000 mg of amoxicillin/500 mg of clarithromycin twice a day for seven days; and the R group was repeatedly given 40 mg of pantoprazole and 1000 mg of amoxicillin/500 mg of clarithromycin twice a day for seven days. An intragastric pH was measured from all the subjects on Day 1 for 24 hours, and the intragastric pH was also measured for 24 hours on Day 1 and Day 7 of repeated administration. Also, a negative conversion rate was calculated upon a follow-up visit paid by subjects who were identified to be H. pylori positive on the UBT test during screening, and stability evaluation was performed according to a predetermined schedule. […]

[2] = Clinical Study 1, Cohort 1: pharmacokinetic interaction of multiple-dose tegoprazan and amoxicillin/clarithromycin; assay type: in vivo, human; conditions: for change of AUC on administering the three formulations in combination (in words) / change of Cmax on administering the three formulations in combination (in words): tegoprazan + amoxicillin + clarithromycin in combination
Method: To evaluate pharmacokinetic interaction of multiple-dose administration of single and combination of tegoprazan and amoxicillin/clarithromycin, a clinical study was designed in accordance with a randomized, open-label, and multiple-dose design.
A total of 24 subjects who had been determined eligible to participate in the study were randomly assigned in a 1:1 ratio to each one of the two groups. Each randomly-assigned group was administered with investigational medical products as arranged during each intervention period and underwent a clinical study as designed. In consideration of the half-life of each product, a 14-day wash-out period was given between the intervention periods.
A total of 24 subjects were divided into group 1 and group 2. During the first intervention period, subjects of group 1 (12 person) were repeatedly administered with 100 mg of tegoprazan twice a day for four days and administered once a day on the fifth day on which a pharmacokinetic clinical study was conducted. During the second intervention period after a 14-day wash-out period, they were repeatedly administered with 1000 mg of amoxicillin and 500 mg of clarithromycin twice a day for four days and administered once a day on the fifth day. During the third intervention period after a 14-day wash-out period, they were repeatedly administered with 100 mg of tegoprazan, 1000 mg of amoxicillin, and 500 mg of clarithromycin twice a day for six days and administered once a day on the seventh day. Following the last dose of each intervention period, pharmacokinetic blood samples were collected for 17 times over 72 hours in the first period, 14 times over 48 hours in the second period, and 19 times over 120 hours in the third period.
Drugs were administered to subjects of group 2 (12 person) in the reverse order to the way the study was conducted on group 1 in the first and second intervention periods and in the same order in the third intervention period. Pharmacokinetic blood samples were collected in the same manner as group 1.
The average plasma concentrations of tegoprazan, clarithromycin, and amoxicillin were measured and time-based plasma concentration and time-based drug concentration patterns were observed when tegoprazan was repeatedly administered alone, amoxicillin/clarithromycin were repeatedly administered and tegoprazan, amoxicillin, and clarithromycin were repeatedly administered in combination.
Pharmacokinetics of tegoprazan, amoxicillin, and clarithromycin were evaluated. Descriptive statistics of pharmacokinetic evaluation parameters were presented. Point estimates for geometric mean ratio between each group and 90% confidence interval were calculated from the log-converted primary pharmacokinetic evaluation parameters by using a linear mixed effect model.

[3] = tegoprazan 100 mg twice a day, with amoxicillin 1000 mg/clarithromycin 500 mg versus alone

## Cc1nc2c(OC3CCOc4cc(F)cc(F)c43)cc(C(=O)N(C)C)cc2[nH]1 (stereo not shown) [Tegoprazan, 4-[(5,7-difluoro-3,4-dihydro-2H-chromene-4-yl)oxy]-N,N,2-trimethyl-1H-benzimidazole-6-carboxamide]
[1]
  speed of intragastric pH increase (to 6 or more) right after the administration: two hours or less
[2]; [3]
  increase of AUC when administered in combination with amoxicillin/clarithromycin: 2.70 times
  increase of Cmax when administered in combination with amoxicillin/clarithromycin: 2.24 times
[2]
  change of AUC on administering the three formulations in combination (in words): increased
  change of Cmax on administering the three formulations in combination (in words): increased

## CC[C@H]1OC(=O)[C@H](C)[C@@H](O[C@H]2C[C@@](C)(OC)[C@@H](O)[C@H](C)O2)[C@H](C)[C@@H](O[C@@H]2O[C@H](C)C[C@H](N(C)C)[C@H]2O)[C@](C)(OC)C[C@@H](C)C(=O)[C@H](C)[C@@H](O)[C@]1(C)O [clarithromycin, (3R,4S,5S,6R,7R,9R,11R,12R,13S,14R)-6-[(2S,3R,4S,6R)-4-(dimethylamino)-3-hydroxy-6-methyloxane-2-yl]oxy-14-ethyl-12,13-dihydroxy-4-[(2R,4R,5S,6S)-5-hydroxy-4-methoxy-4,6-dimethyloxane-2-yl]oxy-7-methoxy-3,5,7,9,11,13-hexamethyl-oxacyclotetradecane-2,10-dione, reference compound]
[2]
  change of AUC on administering the three formulations in combination (in words): tendency to increase; also recorded: increased
  change of Cmax on administering the three formulations in combination (in words): tendency to increase; also recorded: increased

Reference: US20210196685A1, “COMPOSITION FOR ERADICATING HELICOBACTER PYLORI” (HK INNO.N CORPORATION, priority 2018, published 2021)
